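Following 48 hours of exposure in 96-well plates, responses at five concentrations were used to interpolate endpoints linearly. Abbreviation: GI50, concentration required for 50% inhibition of growth.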 Calls of active or inactive are those of the source. No stated cut-off is given here; in the data, active = GI50 up to about 1.1 µM and inactive = higher.
Assays:
Test in all cases: inhibition of tumour cell growth, NCI panel, 48 h
[1] = system: A549
[2] = system: CAKI-1
[3] = system: CCRF-CEM
[4] = system: COLO 205
[5] = system: DLD-1
[6] = system: DMS-114
[7] = system: DMS-273
[8] = system: EKVX
[9] = system: HCC 2998
[10] = system: HCT-116
[11] = system: HCT-15
[12] = system: HL-60
[13] = system: HOP-18
[14] = system: HOP-62
[15] = system: HOP-92
[16] = system: HT-29
[17] = system: IGROV-1
[18] = system: K562
[19] = system: KM-20L2
[20] = system: KM12
[21] = system: LOX IMVI
[22] = system: M19-MEL
[23] = system: MCF7
[24] = system: MOLT-4
[25] = system: Malme-3M
[26] = system: NCI-H226
[27] = system: NCI-H23
[28] = system: NCI-H460
[29] = system: NCI-H522
[30] = system: NCI/ADR-RES
[31] = system: OVCAR-3
[32] = system: OVCAR-4
[33] = system: OVCAR-5
[34] = system: OVCAR-8
[35] = system: RPMI-8226
[36] = system: RXF 393
[37] = system: SF-268
[38] = system: SF-295
[39] = system: SF-539
[40] = system: SK-MEL-28
[41] = system: SK-MEL-2
[42] = system: SK-MEL-5
[43] = system: SK-OV-3
[44] = system: SN12C
[45] = system: SNB-19
[46] = system: SNB-75
[47] = system: SNB-78
[48] = system: SW-620
[49] = system: U-251
[50] = system: UACC-257
[51] = system: UACC-62
[52] = system: UO-31
[53] = system: 786-0
[54] = system: A498
[55] = system: ACHN
[56] = system: LXFL 529
[57] = system: M14
[58] = system: SR
[59] = system: TK-10

`Nc1nc(=O)c2c([nH]1)NCC(CNc1ccc(C(=O)N[C@@H](CCC(=O)O)C(=O)O)cc1)N2C=O` (stereo partly drawn) [LEUCOVORIN CALCIUM] was tested, and the GI50 [1] was > 125 µM (inactive), the GI50 [2] was 102 µM (inactive) and the GI50 [3] was 39.5 µM (inactive). The GI50 [4] was > 125 µM (inactive), the GI50 [5] was > 125 µM (inactive) and the GI50 [6] was > 125 µM (inactive). The GI50 [7] was > 125 µM (inactive), the GI50 [8] was > 125 µM (inactive) and the GI50 [9] was > 125 µM (inactive). For the same molecule, the GI50 [10] was > 125 µM (inactive), the GI50 [11] was greater than 125 µM and the GI50 [12] was 39.5 µM (inactive). For the same molecule, the GI50 [13] was > 125 µM (inactive), the GI50 [14] was > 125 µM (inactive) and the GI50 [15] was > 125 µM (inactive). The GI50 [16] was > 125 µM (inactive), the GI50 [17] was > 125 µM (inactive) and the GI50 [18] was 39.5 µM (inactive). The GI50 [19] was > 125 µM (inactive), the GI50 [20] was > 125 µM (inactive) and the GI50 [21] was > 125 µM (inactive). For the same molecule, the GI50 [22] was > 125 µM (inactive), the GI50 [23] was > 125 µM (inactive) and the GI50 [24] was > 125 µM (inactive). For the same molecule, the GI50 [25] was > 125 µM (inactive), the GI50 [26] was 81.1 µM (inactive) and the GI50 [27] was > 125 µM (inactive). The GI50 [28] was > 125 µM (inactive), the GI50 [29] was > 125 µM (inactive) and the GI50 [30] was > 125 µM (inactive). The GI50 [31] was > 125 µM (inactive), the GI50 [32] was > 125 µM (inactive) and the GI50 [33] was > 95.3 µM (inactive). The GI50 [34] was 121 µM (inactive), the GI50 [35] was > 125 µM (inactive) and the GI50 [36] was > 125 µM (inactive). The GI50 [37] was > 125 µM (inactive), the GI50 [38] was > 125 µM (inactive) and the GI50 [39] was > 125 µM (inactive). The GI50 [40] was > 125 µM (inactive), the GI50 [41] was 40.4 µM (inactive) and the GI50 [42] was > 125 µM (inactive). The GI50 [43] was > 125 µM (inactive), the GI50 [44] was 14.8 µM (inactive) and the GI50 [45] was > 125 µM (inactive). The GI50 [46] was > 125 µM (inactive), the GI50 [47] was > 125 µM (inactive) and the GI50 [48] was > 125 µM (inactive). For the same molecule, the GI50 [49] was > 125 µM (inactive), the GI50 [50] was > 125 µM (inactive) and the GI50 [51] was > 125 µM (inactive). For the same molecule, the GI50 [52] was > 125 µM (inactive).

`Cc1ccc2c(c1)c(=O)c1c(NCCN(C)C)ccc3nnn2c31` was tested, and the GI50 [53] was 3.35 µM (inactive), the GI50 [54] was 4.88 µM (inactive) and the GI50 [1] was 2.83 µM (inactive). For the same molecule, the GI50 [55] was 3.06 µM (inactive), the GI50 [2] was 2.02 µM (inactive) and the GI50 [3] was 2.21 µM (inactive). The GI50 [4] was 1.9 µM (inactive), the GI50 [5] was 2.88 µM (inactive) and the GI50 [6] was 5.26 µM (inactive). For the same molecule, the GI50 [8] was 3.64 µM (inactive), the GI50 [9] was 3.4 µM (inactive) and the GI50 [10] was 2.63 µM (inactive). For the same molecule, the GI50 [11] was 4.18 µM, the GI50 [12] was 2.1 µM (inactive) and the GI50 [13] was 9.93 µM (inactive). For the same molecule, the GI50 [14] was 3.59 µM (inactive), the GI50 [15] was 2.36 µM (inactive) and the GI50 [16] was 1.47 µM (inactive). For the same molecule, the GI50 [17] was 4.33 µM (inactive), the GI50 [18] was 2.91 µM (inactive) and the GI50 [19] was 3.03 µM (inactive). The GI50 [20] was 2.45 µM (inactive), the GI50 [21] was 1.9 µM (inactive) and the GI50 [56] was 3.48 µM (inactive). The GI50 [57] was 4.25 µM (inactive), the GI50 [22] was 6.21 µM (inactive) and the GI50 [24] was 0.605 µM (active). The GI50 [25] was 3.82 µM (inactive), the GI50 [26] was 3.02 µM (inactive) and the GI50 [27] was 3.6 µM (inactive). The GI50 [28] was 2.67 µM (inactive), the GI50 [29] was 4.81 µM (inactive) and the GI50 [31] was 5.55 µM (inactive). For the same molecule, the GI50 [32] was 3.6 µM (inactive), the GI50 [33] was 2.59 µM (inactive) and the GI50 [34] was 2.98 µM (inactive). The GI50 [35] was 2.36 µM (inactive), the GI50 [36] was 2.88 µM (inactive) and the GI50 [37] was 4.24 µM (inactive). For the same molecule, the GI50 [38] was 1.33 µM (inactive), the GI50 [39] was 5.26 µM (inactive) and the GI50 [40] was 5.42 µM (inactive). The GI50 [41] was 8.04 µM (inactive), the GI50 [42] was 3.06 µM (inactive) and the GI50 [43] was 3.56 µM (inactive). The GI50 [44] was 3.45 µM (inactive), the GI50 [45] was 6.34 µM (inactive) and the GI50 [46] was 4.6 µM (inactive). The GI50 [47] was 6.22 µM (inactive), the GI50 [58] was 1.22 µM (inactive) and the GI50 [48] was 1.57 µM (inactive). The GI50 [59] was 3.95 µM (inactive), the GI50 [49] was 4.23 µM (inactive) and the GI50 [50] was 3.6 µM (inactive). The GI50 [51] was 6.44 µM (inactive) and the GI50 [52] was 3.56 µM (inactive).
